# According to patent US9617256B2 (priority 2007, dated 2017):
# Where two headings read alike, the source gives them in different places.
# Legend:
# [1] = test system: AECO001 (ATCC25922); assay: MIC broth microdilution, AECO001; assay type: cell-based, E. coli; conditions: Escherichia coli
# Experimental: (§1) Bacterial isolates were cultivated from −70° C. frozen stocks by overnight passages at 35° C. in ambient air on Mueller-Hinton agar (Beckton Dickinson, Franklin Lakes, N.J.). Clinical isolates tested were obtained from various geographically diverse hospitals in the US and abroad (Focus Diagnostics, Herndon, Va. and JMI, North Liberty, Iowa). Quality control strains were from the American Type Culture Collection (ATCC; Rockville, Md.). Additional primary panel strains were generated using standard molecular biology techniques.
# (§2) Minimum Inhibitory Concentrations (MICs) were determined by the broth microdilution method in accordance with the Clinical and Laboratory Standards Institute (CLSI) guidelines. In brief, organism suspensions were adjusted to a 0.5 McFarland standard to yield a final inoculum between 3×10^5 and 7×10^5 colony-forming units (CFU)/mL. Drug dilutions and inocula were made in sterile, cation adjusted Mueller-Hinton Broth (Beckton Dickinson). An inoculum volume of 100 μL was added to wells containing 100 μL of broth with 2-fold serial dilutions of drug. All inoculated microdilution trays were incubated in ambient air at 35° C. for 18-24 hours. […] Performance of the assay was monitored by the use of laboratory quality-control strains and levofloxacin, a compound with a defined MIC spectrum, in accordance with CLSI guidelines.
# (§3) *AECO001 is ATCC25922, AECO063 is ATCC25922 bearing an acrAB mutation, APAE001 is ATCC27853, APAE006 is a strain of P. aeruginosa in which all efflux pumps are inactivated, APAE006+PMBN indicates MICs with the indicated strain in the presence of 8 micrograms per milliliter of polymyxin B nonapeptide, AABA1060 is a clinical isolate of Acinetobacter baumannii, ASAU001 is a laboratory strain of S. aureus (ATCC29213).
# [2] = test system: AECO063 (ATCC25922 bearing an acrAB mutation); assay: microbe, parasite or virus in culture; assay type: cell-based, E. coli; conditions: Escherichia coli, ATCC25922, read-out: MIC AECO063
# Experimental: as §1, §2, §3
# [3] = test system: APAE001 (ATCC27853); assay: MIC broth microdilution, APAE001; assay type: cell-based, P. aeruginosa; conditions: Pseudomonas aeruginosa
# Experimental: as §1, §2, §3
# [4] = test system: APAE006 (strain of P. aeruginosa in which all efflux pumps are inactivated); assay: microbe, parasite or virus in culture; assay type: cell-based; conditions: Pseudomonas aeruginosa
# Experimental: as §1, §2, §3
# [5] = test system: APAE006 in the presence of 8 micrograms per milliliter of polymyxin B nonapeptide; assay type: cell-based, P. aeruginosa; conditions: APAE006 with 8 micrograms per milliliter polymyxin B nonapeptide
# Experimental: as §1, §2, §3
# [6] = test system: AABA1060 (clinical isolate of Acinetobacter baumannii); assay: MIC broth microdilution, AABA1060; assay type: cell-based; conditions: Acinetobacter baumannii, read-out: MIC AABA1060
# Experimental: as §1, §2, §3
# [7] = test system: ASAU001 (laboratory strain of S. aureus, ATCC29213); assay: MIC broth microdilution, ASAU001; assay type: cell-based; conditions: Staphylococcus aureus, ATCC29213, read-out: MIC ASAU001
# Experimental: as §1, §2, §3
# [8] = ATCC25922, read-out: MIC AECO001
# [9] = ATCC25922, read-out: MIC AECO001 HSA AGP
# [10] = ATCC27853, read-out: MIC APAE001, APAE001 (ATCC27853)
# [11] = read-out: MIC APAE006, APAE006, all efflux pumps inactivated
# [12] = ATCC27853, read-out: MIC APAE001, APAE001 is ATCC27853
# [13] = read-out: MIC APAE006, P. aeruginosa, all efflux pumps inactivated
SMILES,"MIC [1, 8] [µg/mL]","MIC [1, 9] [µg/mL]",MIC [2] [µg/mL],"MIC [3, 10] [µg/mL]","MIC [4, 11] [µg/mL]",MIC APAE006 + PMBN [5],MIC [6] [µg/mL],MIC [7] [µg/mL],"MIC [3, 12] [µg/mL]","MIC [4, 13] [µg/mL]"
CC(C)(N)[C@@H](NC(=O)c1ccc(C#Cc2ccc(CNC3CC3)cc2)cc1)C(=O)NO [Compound 121-2],2 to 16,16 to 64,2 to 16,16 to 64,< 2,A (MIC's of 2.0 μg/mL or less = A),16 to 64,16 to 64,–,–
CCOCc1ccc(C#Cc2ccc(C(=O)NC(C(=O)NO)C(C)(C)N)cc2)cc1 (centres unmarked) [Compound 126-2],< 2,< 2,< 2,2 to 16,< 2,A (MIC's of 2.0 μg/mL or less = A),< 2,16 to 64,–,–
"O=C(NO)[C@@H](Cc1ccccc1)NS(=O)(=O)c1ccc(C#Cc2ccc(CN3CCOCC3)cc2)cc1 [Example 62-4, (R)—N-Hydroxy-2-[4-(4-morpholin-4-ylmethyl-phenylethynyl)-benzenesulfonylamino]-3-phenyl-propionamide]",2 to 16,–,–,–,–,–,–,> 64,> 64,2 to 16
O=C(NO)[C@H](COCc1ccccc1)NS(=O)(=O)c1ccc(C#Cc2ccc(CN3CCOCC3)cc2)cc1 [Example 62-5],2 to 16,–,–,–,–,–,–,> 64,> 64,16 to 64
O=C(NO)[C@H](Cc1ccccc1)NS(=O)(=O)c1ccc(C#Cc2ccc(CN3CCOCC3)cc2)cc1 [Example 62-6],16 to 64,–,–,–,–,–,–,> 64,> 64,2 to 16
O=C(NO)C1(NS(=O)(=O)c2ccc(C#Cc3ccc(CN4CCOCC4)cc3)cc2)CCCC1 [Example 62-8],16 to 64,–,–,–,–,–,–,> 64,> 64,16 to 64
CSC[C@H](NS(=O)(=O)c1ccc(C#Cc2ccc(CN3CCOCC3)cc2)cc1)C(=O)NO [Example 62-9],16 to 64,–,–,–,–,–,–,> 64,> 64,2 to 16
O=C(NO)[C@@H]1CCCN1S(=O)(=O)c1ccc(C#Cc2ccc(CN3CCOCC3)cc2)cc1 [Example 62-10],2 to 16,–,–,–,–,–,–,> 64,> 64,< 2
O=C(NO)[C@@H]1CCN1S(=O)(=O)c1ccc(C#Cc2ccc(CN3CCOCC3)cc2)cc1 [Example 62-11],2 to 16,–,–,–,–,–,–,> 64,> 64,< 2
"COc1ccc(C#CC#Cc2ccc(C(=O)N[C@H](C(=O)NO)[C@@H](C)N)cc2)cc1 [Example 82-1, N-((1S,2R)-2-Amino-1-hydroxycarbamoyl-propyl)-4-[4-(4-methoxy-phenyl)-buta-1,3-diynyl]-benzamide]",< 2,2 to 16,< 2,2 to 16,< 2,A (MIC's of 2.0 μg/mL or less = A),2 to 16,16 to 64,–,–
CC(C)(O)[C@H](NC(=O)c1ccc(C#CC#Cc2ccc(N)cc2)cc1)C(=O)NO [Example 82-17],< 2,< 2,< 2,< 2,< 2,A (MIC's of 2.0 μg/mL or less = A),< 2,2 to 16,–,–
C[C@@H](O)[C@H](NC(=O)c1ccc(C#CC#Cc2cccc(F)c2)cc1)C(=O)NO [Example 82-18],< 2,2 to 16,< 2,2 to 16,< 2,A (MIC's of 2.0 μg/mL or less = A),16 to 64,16 to 64,–,–
